# Assay results published in PubChem BioAssay (NCI).
#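 Compound exposure: 48 hours, 5 concentrations, 96-well plates. TGI denotes the concentration required for complete inhibition of growth.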
# Legend:
# Experiment in all cases: DTP human tumour cell line panel, 48 h
# TK-10 renal = test system: TK-10 renal
# HOP-92 NSCLC = test system: HOP-92 NSCLC
# SK-OV-3 ovarian = test system: SK-OV-3 ovarian
# T-47D breast = test system: T-47D breast
# OVCAR-4 ovarian = test system: OVCAR-4 ovarian
# NCI-H522 lung = test system: NCI-H522 lung
# SR leukemia = test system: SR leukemia
# SK-MEL-5 melanoma = test system: SK-MEL-5 melanoma
# BT-549 breast = test system: BT-549 breast
# SF-268 CNS = test system: SF-268 CNS
# UACC-257 melanoma = test system: UACC-257 melanoma
# MALME-3M melanoma = test system: MALME-3M melanoma
# SF-295 CNS = test system: SF-295 CNS
# K-562 leukemia = test system: K-562 leukemia
# HL-60(TB) leukemia = test system: HL-60(TB) leukemia
# IGROV1 ovarian = test system: IGROV1 ovarian
# NCI-H226 lung = test system: NCI-H226 lung
# HCT-15 colon = test system: HCT-15 colon
# A498 renal = test system: A498 renal
# RXF 393 renal = test system: RXF 393 renal
# U251 CNS = test system: U251 CNS
# PC-3 prostate = test system: PC-3 prostate
# LOX IMVI melanoma = test system: LOX IMVI melanoma
# CAKI-1 renal = test system: CAKI-1 renal
# SNB-19 CNS = test system: SNB-19 CNS
# SNB-75 CNS = test system: SNB-75 CNS
# DU-145 prostate = test system: DU-145 prostate
# NCI-H460 lung = test system: NCI-H460 lung
# UO-31 renal = test system: UO-31 renal
# HCT-116 colon = test system: HCT-116 colon
# EKVX NSCLC = test system: EKVX NSCLC
# MDA-N = test system: MDA-N
# OVCAR-8 ovarian = test system: OVCAR-8 ovarian
# SN12C renal = test system: SN12C renal
# RPMI-8226 leukemia = test system: RPMI-8226 leukemia
# 786-0 renal = test system: 786-0 renal
# HOP-62 NSCLC = test system: HOP-62 NSCLC
# OVCAR-5 ovarian = test system: OVCAR-5 ovarian
# ACHN renal = test system: ACHN renal
# SW-620 colon = test system: SW-620 colon
# CCRF-CEM leukemia = test system: CCRF-CEM leukemia
# NCI/ADR-RES ovarian = test system: NCI/ADR-RES ovarian
# OVCAR-3 ovarian = test system: OVCAR-3 ovarian
# COLO 205 colon = test system: COLO 205 colon
# MOLT-4 leukemia = test system: MOLT-4 leukemia
# MDA-MB-231 breast = test system: MDA-MB-231 breast
# UACC-62 melanoma = test system: UACC-62 melanoma
# SK-MEL-28 melanoma = test system: SK-MEL-28 melanoma
# MDA-MB-435 = test system: MDA-MB-435
# SK-MEL-2 melanoma = test system: SK-MEL-2 melanoma
# KM12 colon = test system: KM12 colon
# MCF7 breast = test system: MCF7 breast
# HS 578T breast = test system: HS 578T breast
# A549 NSCLC = test system: A549 NSCLC
# NCI-H23 lung = test system: NCI-H23 lung
# SF-539 CNS = test system: SF-539 CNS
# HT29 colon = test system: HT29 colon
# M14 melanoma = test system: M14 melanoma
# HCC-2998 colon = test system: HCC-2998 colon
structure (smiles),measurement,setting,value
CCOC(=O)c1c2c(n(C)c1-c1ccccc1)C(=O)C(C)=CC2=O,TGI,TK-10 renal,22.1 µM
same,TGI,HOP-92 NSCLC,5.46 µM
same,TGI,SK-OV-3 ovarian,30.4 µM
same,TGI,T-47D breast,> 26 µM
same,TGI,OVCAR-4 ovarian,20.3 µM
same,TGI,NCI-H522 lung,5.83 µM
same,TGI,SR leukemia,9.39 µM
same,TGI,SK-MEL-5 melanoma,21.5 µM
same,TGI,BT-549 breast,27.7 µM
same,TGI,SF-268 CNS,23.1 µM
same,TGI,UACC-257 melanoma,7.03 µM
same,TGI,MALME-3M melanoma,22.8 µM
same,TGI,SF-295 CNS,36.8 µM
same,TGI,K-562 leukemia,> 33.2 µM
same,TGI,HL-60(TB) leukemia,9.79 µM
same,TGI,IGROV1 ovarian,17.6 µM
same,TGI,NCI-H226 lung,24.9 µM
same,TGI,HCT-15 colon,17.7 µM
same,TGI,A498 renal,34.8 µM
same,TGI,RXF 393 renal,23.6 µM
same,TGI,U251 CNS,22.8 µM
same,TGI,PC-3 prostate,25.5 µM
same,TGI,LOX IMVI melanoma,13.2 µM
same,TGI,CAKI-1 renal,28.1 µM
same,TGI,SNB-19 CNS,26.7 µM
same,TGI,SNB-75 CNS,28.8 µM
same,TGI,DU-145 prostate,35.2 µM
same,TGI,NCI-H460 lung,47.8 µM
same,TGI,UO-31 renal,26.6 µM
same,TGI,HCT-116 colon,15 µM
same,TGI,EKVX NSCLC,20.5 µM
same,TGI,MDA-N,4.08 µM
same,TGI,OVCAR-8 ovarian,15.4 µM
same,TGI,SN12C renal,24.1 µM
same,TGI,RPMI-8226 leukemia,4.81 µM
same,TGI,786-0 renal,32.1 µM
same,TGI,HOP-62 NSCLC,33.6 µM
same,TGI,OVCAR-5 ovarian,19.6 µM
same,TGI,ACHN renal,20.7 µM
same,TGI,SW-620 colon,19.8 µM
same,TGI,CCRF-CEM leukemia,7.98 µM
same,TGI,NCI/ADR-RES ovarian,23.3 µM
same,TGI,OVCAR-3 ovarian,8.17 µM
same,TGI,COLO 205 colon,4.5 µM
same,TGI,MOLT-4 leukemia,9.96 µM
same,TGI,MDA-MB-231 breast,4.62 µM
same,TGI,UACC-62 melanoma,23.9 µM
same,TGI,SK-MEL-28 melanoma,27.8 µM
same,TGI,MDA-MB-435,3.68 µM
same,TGI,SK-MEL-2 melanoma,31.1 µM
same,TGI,KM12 colon,22.5 µM
same,TGI,MCF7 breast,6.01 µM
same,TGI,HS 578T breast,56.7 µM
same,TGI,A549 NSCLC,32.9 µM
same,TGI,NCI-H23 lung,29.7 µM
same,TGI,SF-539 CNS,14.6 µM
same,TGI,HT29 colon,35.1 µM
same,TGI,M14 melanoma,13.5 µM
CC1(C)OC[C@@H](/C=C\CCO[Si](c2ccccc2)(c2ccccc2)C(C)(C)C)N1C(=O)c1ccccc1,TGI,TK-10 renal,> 100 µM
same,TGI,HOP-92 NSCLC,52.7 µM
same,TGI,SK-OV-3 ovarian,> 100 µM
same,TGI,T-47D breast,> 100 µM
same,TGI,OVCAR-4 ovarian,> 100 µM
same,TGI,NCI-H522 lung,18.8 µM
same,TGI,SR leukemia,23.7 µM
same,TGI,SK-MEL-5 melanoma,12 µM
same,TGI,BT-549 breast,> 100 µM
same,TGI,SF-268 CNS,81.4 µM
same,TGI,UACC-257 melanoma,24.1 µM
same,TGI,SF-295 CNS,> 100 µM
same,TGI,K-562 leukemia,52.1 µM
same,TGI,HL-60(TB) leukemia,14.6 µM
same,TGI,IGROV1 ovarian,> 100 µM
same,TGI,HCC-2998 colon,21.4 µM
same,TGI,NCI-H226 lung,25.5 µM
same,TGI,HCT-15 colon,> 100 µM
same,TGI,A498 renal,44.8 µM
same,TGI,RXF 393 renal,27.9 µM
same,TGI,U251 CNS,45.5 µM
same,TGI,PC-3 prostate,> 100 µM
same,TGI,LOX IMVI melanoma,28.6 µM
same,TGI,CAKI-1 renal,> 100 µM
same,TGI,SNB-19 CNS,> 100 µM
same,TGI,SNB-75 CNS,> 100 µM
same,TGI,DU-145 prostate,95.9 µM
same,TGI,NCI-H460 lung,17.3 µM
same,TGI,UO-31 renal,36.5 µM
same,TGI,HCT-116 colon,21.4 µM
same,TGI,EKVX NSCLC,25.8 µM
same,TGI,MDA-N,> 100 µM
same,TGI,OVCAR-8 ovarian,> 100 µM
same,TGI,SN12C renal,29.9 µM
same,TGI,RPMI-8226 leukemia,23.2 µM
same,TGI,786-0 renal,28 µM
same,TGI,HOP-62 NSCLC,> 100 µM
same,TGI,OVCAR-5 ovarian,46 µM
same,TGI,ACHN renal,> 100 µM
same,TGI,SW-620 colon,> 100 µM
same,TGI,CCRF-CEM leukemia,59.7 µM
same,TGI,NCI/ADR-RES ovarian,> 100 µM
same,TGI,OVCAR-3 ovarian,30.5 µM
same,TGI,COLO 205 colon,21.9 µM
same,TGI,MOLT-4 leukemia,47.1 µM
same,TGI,MDA-MB-231 breast,38.4 µM
same,TGI,UACC-62 melanoma,33.1 µM
same,TGI,SK-MEL-28 melanoma,> 100 µM
same,TGI,MDA-MB-435,> 100 µM
same,TGI,SK-MEL-2 melanoma,19.6 µM
same,TGI,KM12 colon,34.6 µM
same,TGI,MCF7 breast,24.4 µM
same,TGI,HS 578T breast,55.1 µM
same,TGI,A549 NSCLC,23.2 µM
same,TGI,NCI-H23 lung,96.7 µM
same,TGI,SF-539 CNS,45.4 µM
same,TGI,HT29 colon,17.3 µM
same,TGI,M14 melanoma,32.8 µM
